{"source": "patent US20060263453A1", "about": "“Methods and compositions for modulating glutamate dehydrogenase” (priority 2004, published 2006)", "key": {"[1]": {"tested_on": "'antenna-less' form of human GDH", "assay": "kinetic analysis of 'antenna-less' human GDH", "assay_type": "biochemical", "conditions": "FIG. 4", "protocol": "(§1) First, aliquots of GDH were extensively dialyzed against 0.1M sodium phosphate buffer, pH 7.0, which contained 1 mM ethylenediaminetetraacetic acid (EDTA). The enzyme concentrations were adjusted to 1 mg/ml and the amount of enzyme added to the reaction mixture, for kinetic analysis, was adjusted to yield optimal steady state velocity measurements. All solutions were made immediately prior to use. Enzyme assays were performed by monitoring reduced coenzyme absorbance at 340 nm using a Shimadzu UV-1601 spectrophotometer. The reductive amination reactions were performed in 3 mL volumes at pH 7.0 in the presence of 0.1 mM nicotinamide adenine dinucleotide (NADH), 50 mM NH4Cl, and 5 mM 2-oxoglutarate. The rate of NADH oxidation was calculated using an extinction coefficient of 6.22 mM^−1 cm^−1.\n(§2) To this end, EGCG was tested against five different HI/HA mutant forms of GDH, namely, R265K, R269C, E296A, S448P, and H454Y. In addition, EGCG was tested against human wild type GDH (“WT”), GDH from Tetrahymena thermophilia (“tGDH”) that, like the HI/HA mutant GDH enzymes, is not regulated by GTP, and a human GDH that was missing a certain 48 residue ‘antenna-like’ feature protruding from the top of each of its six subunits that is necessary for ADP, GTP, and Palmitoyl CoA regulation. […]"}, "islets": {"tested_on": "islets", "assay": "[U-14C]-glutamine oxidation in islets", "assay_type": "cell-based, rat", "protocol": "In a first experiment, a batch of 100 islets were incubated with glucose-free Krebs-Ringer bicarbonate buffer, as described herein, containing 20 μM EGCG or 20 μM EGC and 2 mM glutamine for 60 minutes. The islets were then incubated in the presence of varying concentrations of BCH (shown in FIG. 7A) for 60 minutes, and for an additional 60 minutes in the presence of 2 mCi [U-^14C]-glutamine (NEN-Life Science Products, UK). Next, [U-^14C]-glutamine oxidation in the incubated islets was measured. A trap filter was placed in each tightly sealed glass tube of the perifusion apparatus to collect the ^14CO2 produced by the islets, and the amount of radioactivity was determined by liquid scintillation counting. The results are summarized in FIG. 7A, and are presented as means±S.E. from 4 separate experiments. […] The islets were then incubated in the presence of 10 mM BCH (or no BCH—to measure “baseline” glutamine oxidation levels) for 60 minutes. The islets were then incubated for an additional 60 minutes in the presence of 2 mCi [U-^14C]-glutamine (NEN-Life Science Products, UK). Next, [U-^14C]-glutamine oxidation in the incubated islets was measured, as described above."}, "rat islets [2]": {"tested_on": "rat islets", "assay": "glucose stimulated insulin secretion in 120 minute run-down islets", "assay_type": "cell-based", "protocol": "Under brief “run-down” conditions used for the above GSIS analysis, where glucose was removed from the cells for only […], the levels of high-energy metabolites (i.e., GTP and ATP) have not been depleted and these effectively shut down GDH activity. This, in turn, eliminated any effect GDH might have on insulin secretion. Therefore, the effects of EGCG were also tested on […] that had been “run-down” for a longer period of time (120 minutes) prior to glucose stimulation (FIG. 11). Specifically, isolated rat islets were cultured with 10 mM glucose for 3 days and then perifused in the absence of glucose and in the presence of 0 or 20 μM EGCG (or 20 μM EGC) for “run-down” periods of 120 minutes prior to stimulation with a glucose ramp (0 to 25 mM, 0.5 mM/minute). Finally, islets were exposed to 30 mM KCl. The insert highlighted the insulin secretion from time=120 minutes to 140 minutes."}, "[3]": {"conditions": "ethanol, DMSO, dimethyl formamide; stored at −20° C.; cited from earlier work"}, "rat islets [4]": {"tested_on": "rat islets", "assay": "glucose stimulated insulin secretion (GSIS), short run-down (50 minutes), glucose ramp", "assay_type": "cell-based", "conditions": "20 μM, FIGS. 8A and 8B", "protocol": "In this Example, the effect of EGCG on glucose stimulated insulin secretion (GSIS) was examined. Isolated rat islets were cultured with 20 mM glucose (FIG. 8A) and 10 mM glucose (FIG. 8B) for 3 days, then perifused in the absence of glucose for 50 minutes and in the presence of 0 μM EGCG; 20 μM EGCG; or 20 μM EGC. Next, the islets were stimulated by a glucose ramp (0 to 25 mM, 0.5 mM/minute). Finally, the islets were exposed to 30 mM KCl. Insulin levels were measured every minute by radioimmunoassay. The results shown in FIG. 8A are presented as means±S.E. for 100 islets from 3 separate experiments (and means±S.E. for 100 islets from 1 experiment for FIG. 8B)."}, "[5]": {"tested_on": "HI/HA mutant forms of GDH (R265K, R269C, E296A, S448P, H454Y)", "assay": "kinetic analysis of HI/HA mutant forms of GDH", "assay_type": "biochemical, human", "conditions": "FIG. 4", "protocol": "as §1, §2"}, "[6]": {"tested_on": "GDH from Tetrahymena thermophilia (tGDH)", "assay": "kinetic analysis of Tetrahymena GDH", "assay_type": "biochemical", "conditions": "FIG. 4", "protocol": "as §1, §2"}, "[7]": {"conditions": "cited from earlier work"}, "Bovine GDH (bGDH)": {"target": "T1, Bovine GDH (bGDH) (Bos taurus, UniProt P00366)", "T1 construct": "purchased Sigma Aldrich Chemical Company (St. Louis, Mo.)", "T1 sequence (P00366 58-558)": "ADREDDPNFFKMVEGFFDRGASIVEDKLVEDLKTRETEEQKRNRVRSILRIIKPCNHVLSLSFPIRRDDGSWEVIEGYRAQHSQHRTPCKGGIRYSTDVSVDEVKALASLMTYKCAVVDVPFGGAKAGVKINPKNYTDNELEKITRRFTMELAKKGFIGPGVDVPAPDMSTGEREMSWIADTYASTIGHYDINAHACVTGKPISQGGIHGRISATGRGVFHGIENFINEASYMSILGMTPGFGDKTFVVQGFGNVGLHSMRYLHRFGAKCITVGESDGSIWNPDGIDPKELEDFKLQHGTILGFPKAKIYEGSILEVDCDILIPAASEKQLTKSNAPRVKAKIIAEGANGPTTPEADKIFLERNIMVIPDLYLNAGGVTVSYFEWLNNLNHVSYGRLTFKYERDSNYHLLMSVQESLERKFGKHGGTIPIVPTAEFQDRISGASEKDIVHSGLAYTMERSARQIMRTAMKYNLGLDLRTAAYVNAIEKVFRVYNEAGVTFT", "assay": "reductive amination reaction catalyzed by bovine GDH (NADH absorbance at 340 nm)", "assay_type": "biochemical", "protocol": "In this Example, the effects of epigallocatechin gallate (EGCG), epigallocatechin (EGC), epicatechin gallate (ECG), and epicatechin (EC) from Camellia sinensis on GDH activity were tested. Bovine GDH (bGDH) was used in this Example, which was obtained as an aqueous (NH4)2SO4 suspension from Sigma Aldrich Chemical Company (St. Louis, Mo.).\nas §1"}, "[8]": {"conditions": "ethanol, DMSO, dimethyl formamide"}}, "data": [{"smiles": "O=C(O[C@@H]1Cc2c(O)cc(O)cc2O[C@@H]1c1cc(O)c(O)c(O)c1)c1cc(O)c(O)c(O)c1", "note": "[EGCG, (2R,3R)-2-(3,4,5-Trihydroxyphenyl)-3,4-dihydro-1 (2H)-benzopyran-3,5,7-triol 3-(3,4,5-trihydroxybenzoate)]", "values": [{"measurement": "inhibition of 'antenna-less' human GDH", "setting": "[1]", "result": "did not inhibit"}, {"measurement": "block of BCH stimulation of glutaminolysis (glutamine oxidation)", "setting": "islets; 20 μM, 2 mM glutamine, FIG. 7A", "result": "completely blocked"}, {"measurement": "effect on basal levels of glutamine oxidation", "setting": "islets; 3 mM glutamine, no BCH, FIG. 7D", "result": "does not have an effect"}, {"measurement": "effect on 10 mM BCH-stimulated glutamine oxidation", "setting": "islets; 3 mM glutamine, FIG. 7B, 7C", "result": "inhibits glutamine oxidation in a dose-dependent manner"}, {"measurement": "concentration of maximal effects on glutamine oxidation", "setting": "islets; 10 mM BCH, 3 mM glutamine, FIG. 7B", "result": "approximately 20 μM"}, {"measurement": "potentiation of GSIS", "setting": "rat islets [2]; 20 μM, 120 minute run-down, FIG. 11", "result": "potentiates"}, {"measurement": "effect on KCl-stimulated release of insulin", "setting": "rat islets [2]; 30 mM KCl", "result": "neither EGCG or EGC affected"}, {"measurement": "stability in organic solvents", "setting": "[3]", "result": "at least six months"}, {"measurement": "effect on GSIS", "setting": "rat islets [4]", "result": "neither EGC nor EGCG affected"}, {"measurement": "inhibition of the activity of HI/HA GDH enzymes", "setting": "[5]", "result": "substantially the same efficacy as with wild type human GDH"}, {"measurement": "inhibition of tGDH", "setting": "[6]", "result": "inhibited"}, {"measurement": "solubility in organic solvents", "setting": "[7]; [8]", "result": "at least 20 mg/mL"}, {"measurement": "soluble in organic solvents", "setting": "[7]; [8]", "result": "soluble"}, {"measurement": "solubility in phosphate buffered saline (PBS)", "setting": "[7]; pH 7.2", "result": "at least 25 mg/mL"}, {"measurement": "potent inhibitor of GDH activity", "setting": "Bovine GDH (bGDH); FIG. 1A", "result": "potent inhibitors"}, {"measurement": "reversibility of inhibition", "setting": "Bovine GDH (bGDH); dialysis of an EGCG/GDH mixture, data not shown", "result": "reversible"}]}]}
